Data from ChEMBL document CHEMBL1201862, “PubChem BioAssay data set” (2004).
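48-hour exposure; five concentrations; linearly interpolated endpoints. Abbreviation: GI50, concentration required for 50% inhibition of growth.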 Active and inactive are the calls of the source. Cut-off read from the data, not from the text of the source: active = GI50 up to about 1.1 µM and inactive = higher.

Assays:
Assay in all cases: NCI-60 cell line screen, 48 h
SF-295 = tested on: SF-295
UACC-62 = tested on: UACC-62
COLO 205 = tested on: COLO 205
A498 = tested on: A498
OVCAR-8 = tested on: OVCAR-8
SNB-19 = tested on: SNB-19
LOX IMVI = tested on: LOX IMVI
HCT-116 = tested on: HCT-116
IGROV-1 = tested on: IGROV-1
HT-29 = tested on: HT-29
HL-60 = tested on: HL-60
PC-3 = tested on: PC-3
MCF7 = tested on: MCF7
NCI-H23 = tested on: NCI-H23
DU-145 = tested on: DU-145
CAKI-1 = tested on: CAKI-1
BT-549 = tested on: BT-549
RPMI-8226 = tested on: RPMI-8226
786-0 = tested on: 786-0
T47D = tested on: T47D
NCI/ADR-RES = tested on: NCI/ADR-RES
ACHN = tested on: ACHN
SF-268 = tested on: SF-268
OVCAR-4 = tested on: OVCAR-4
UACC-257 = tested on: UACC-257
HCC 2998 = tested on: HCC 2998
CCRF-CEM = tested on: CCRF-CEM
SR = tested on: SR
OVCAR-3 = tested on: OVCAR-3
M14 = tested on: M14
KM12 = tested on: KM12
RXF 393 = tested on: RXF 393
SN12C = tested on: SN12C
OVCAR-5 = tested on: OVCAR-5
MDA-N = tested on: MDA-N
SF-539 = tested on: SF-539
SK-MEL-5 = tested on: SK-MEL-5
MDA-MB-231 = tested on: MDA-MB-231
HOP-92 = tested on: HOP-92
A549 = tested on: A549
HOP-62 = tested on: HOP-62
Malme-3M = tested on: Malme-3M
Hs-578T = tested on: Hs-578T
SNB-75 = tested on: SNB-75
NCI-H460 = tested on: NCI-H460
MOLT-4 = tested on: MOLT-4
UO-31 = tested on: UO-31
K562 = tested on: K562
TK-10 = tested on: TK-10
HCT-15 = tested on: HCT-15
SK-MEL-2 = tested on: SK-MEL-2
NCI-H226 = tested on: NCI-H226
NCI-H522 = tested on: NCI-H522
MDA-MB-435 = tested on: MDA-MB-435
U-251 = tested on: U-251
SK-MEL-28 = tested on: SK-MEL-28
SK-OV-3 = tested on: SK-OV-3
EKVX = tested on: EKVX
SW-620 = tested on: SW-620

CC(=O)OCC1OC(n2c(C)cc(C)c(C#N)c2=S)C(OC(C)=O)C(OC(C)=O)C1OC(C)=O (centres undefined)
GI50 (SF-295): > 100 µM (inactive)
GI50 (UACC-62): > 100 µM (inactive)
GI50 (COLO 205): > 100 µM (inactive)
GI50 (A498): > 100 µM (inactive)
GI50 (OVCAR-8): > 100 µM (inactive)
GI50 (SNB-19): > 100 µM (inactive)
GI50 (LOX IMVI): > 100 µM (inactive)
GI50 (HCT-116): > 100 µM (inactive)
GI50 (IGROV-1): > 100 µM (inactive)
GI50 (HT-29): > 100 µM (inactive)
GI50 (HL-60): > 100 µM (inactive)
GI50 (PC-3): > 100 µM (inactive)
GI50 (MCF7): > 100 µM (inactive)
GI50 (NCI-H23): > 100 µM (inactive)
GI50 (DU-145): > 100 µM (inactive)
GI50 (CAKI-1): > 100 µM (inactive)
GI50 (BT-549): > 100 µM (inactive)
GI50 (RPMI-8226): > 100 µM (inactive)
GI50 (786-0): > 100 µM (inactive)
GI50 (T47D): > 100 µM (inactive)
GI50 (NCI/ADR-RES): > 100 µM (inactive)
GI50 (ACHN): > 100 µM (inactive)
GI50 (SF-268): > 100 µM (inactive)
GI50 (OVCAR-4): > 100 µM (inactive)
GI50 (UACC-257): > 100 µM (inactive)
GI50 (HCC 2998): > 100 µM (inactive)
GI50 (CCRF-CEM): > 100 µM (inactive)
GI50 (SR): > 100 µM (inactive)
GI50 (OVCAR-3): > 100 µM (inactive)
GI50 (M14): > 100 µM (inactive)
GI50 (KM12): > 100 µM (inactive)
GI50 (RXF 393): > 100 µM (inactive)
GI50 (SN12C): > 100 µM (inactive)
GI50 (OVCAR-5): > 100 µM (inactive)
GI50 (MDA-N): > 100 µM (inactive)
GI50 (SF-539): > 100 µM (inactive)
GI50 (SK-MEL-5): > 100 µM (inactive)
GI50 (MDA-MB-231): > 100 µM (inactive)
GI50 (HOP-92): > 100 µM (inactive)
GI50 (A549): > 100 µM (inactive)
GI50 (HOP-62): > 100 µM (inactive)
GI50 (Malme-3M): > 100 µM (inactive)
GI50 (Hs-578T): > 100 µM (inactive)
GI50 (SNB-75): > 100 µM (inactive)
GI50 (NCI-H460): > 100 µM (inactive)
GI50 (MOLT-4): > 100 µM (inactive)
GI50 (UO-31): > 100 µM (inactive)
GI50 (K562): > 100 µM (inactive)
GI50 (TK-10): > 100 µM (inactive)
GI50 (HCT-15): > 100 µM
GI50 (SK-MEL-2): > 100 µM (inactive)
GI50 (NCI-H226): > 100 µM (inactive)
GI50 (NCI-H522): > 100 µM (inactive)
GI50 (MDA-MB-435): > 100 µM (inactive)
GI50 (U-251): > 100 µM (inactive)
GI50 (SK-MEL-28): > 100 µM (inactive)

COc1cc(/C=C2\C[C@H]3[C@@H]4CC=C5C=C(N6CCCC6)CC[C@]5(C)[C@H]4CC[C@]3(C)C2=O)cc(OC)c1OC
GI50 (SF-295): 2.22 µM (inactive)
GI50 (UACC-62): 2.13 µM (inactive)
GI50 (COLO 205): 2.77 µM (inactive)
GI50 (A498): 8.79 µM (inactive)
GI50 (OVCAR-8): 2.16 µM (inactive)
GI50 (SNB-19): 3.73 µM (inactive)
GI50 (LOX IMVI): 1.48 µM (inactive)
GI50 (HCT-116): 1.91 µM (inactive)
GI50 (IGROV-1): 1.79 µM (inactive)
GI50 (HT-29): 2.95 µM (inactive)
GI50 (HL-60): 1.13 µM (inactive)
GI50 (PC-3): 3.12 µM (inactive)
GI50 (MCF7): 3.22 µM (inactive)
GI50 (NCI-H23): 2.52 µM (inactive)
GI50 (DU-145): 3.44 µM (inactive)
GI50 (CAKI-1): 2.84 µM (inactive)
GI50 (BT-549): 2.12 µM (inactive)
GI50 (RPMI-8226): 2.53 µM (inactive)
GI50 (786-0): 2.84 µM (inactive)
GI50 (T47D): 1.94 µM (inactive)
GI50 (NCI/ADR-RES): 2.65 µM (inactive)
GI50 (ACHN): 2.32 µM (inactive)
GI50 (SF-268): 2.23 µM (inactive)
GI50 (OVCAR-4): 1.75 µM (inactive)
GI50 (UACC-257): 3.1 µM (inactive)
GI50 (HCC 2998): 1.93 µM (inactive)
GI50 (CCRF-CEM): 2.82 µM (inactive)
GI50 (SR): 1.44 µM (inactive)
GI50 (OVCAR-3): 1.88 µM (inactive)
GI50 (M14): 2.19 µM (inactive)
GI50 (KM12): 1.91 µM (inactive)
GI50 (SK-OV-3): 6.89 µM (inactive)
GI50 (RXF 393): 1.9 µM (inactive)
GI50 (SN12C): 2.85 µM (inactive)
GI50 (OVCAR-5): 7.1 µM (inactive)
GI50 (MDA-N): 2.32 µM (inactive)
GI50 (SF-539): 3.5 µM (inactive)
GI50 (SK-MEL-5): 2.76 µM (inactive)
GI50 (EKVX): 3.75 µM (inactive)
GI50 (MDA-MB-231): 2.4 µM (inactive)
GI50 (HOP-92): 2.21 µM (inactive)
GI50 (A549): 5.24 µM (inactive)
GI50 (SW-620): 3.91 µM (inactive)
GI50 (HOP-62): 2.48 µM (inactive)
GI50 (Malme-3M): 2.01 µM (inactive)
GI50 (Hs-578T): 2.4 µM (inactive)
GI50 (SNB-75): 4.51 µM (inactive)
GI50 (MOLT-4): 2.05 µM (inactive)
GI50 (UO-31): 4.83 µM (inactive)
GI50 (K562): 3.42 µM (inactive)
GI50 (TK-10): 6.49 µM (inactive)
GI50 (HCT-15): 2.23 µM
GI50 (SK-MEL-2): 3.18 µM (inactive)
GI50 (NCI-H226): 13.6 µM (inactive)
GI50 (NCI-H522): 1.43 µM (inactive)
GI50 (MDA-MB-435): 1.63 µM (inactive)
GI50 (U-251): 1.96 µM (inactive)
GI50 (SK-MEL-28): 4.55 µM (inactive)
